# Results: US20250090507A1, “Methods of Treating Cancer With a B-RAF Inhibitor” (MapKure, LLC, priority 2022, published 2025)
# Entries after “also recorded” stand apart in the source; their conditions may differ. Where two headings read alike, the source gives them in different places.
# Test: Phase 1 study (NCT04249843): plasma pharmacokinetics of Compound A
# Format: in vivo, human
# Conditions: for Racc: accumulation ratio based on AUC8h; for Cmax / AUC(0-t) / Tmax: human, plasma, oral
# Experimental: For a single-dose profile: AUC from zero to the last measurable concentration (AUClast), AUC from zero to infinity (AUC0-∞), maximum observed plasma concentration (Cmax), time to maximum observed plasma concentration (tmax), t1/2, apparent clearance, and apparent volume of distribution (Vz/F). In addition, AUClast,ss, AUCtau, Cmax,ss, and tmax, ss were calculated at steady state.
# Pharmacokinetic assay: plasma samples were assayed for Compound A (or possible major metabolites) concentration with use of a validated chromatography method.
# Pharmacokinetic data were analyzed using the PK Population. Compound A PK variables (i.e., AUClast, AUC0-∞, Cmax, Tmax, t1/2, apparent clearance and Vz/F) were calculated after single dosing in Phase 1a. In addition, AUClast, ss, AUCtau, Cmax,ss, and tmax,ss were calculated in Phase 1b. The PK parameters were calculated as appropriate using noncompartmental methods and summary statistics were provided. Compound A (or possible major metabolites) plasma concentration data and PK parameters were tabulated and summarized for Day 1 of Cycle 1, Day 1 of Cycle 2 and at steady state (Phase 1b). Descriptive statistics included means, medians, minimums, maximums, standard deviation, coefficient of variation (CV), geometric mean, and geometric CV as appropriate. Mean plasma concentrations were also plotted against time for each dose level. Additional PK analyses may be conducted as appropriate.
# Tumor response: • 1 patient evaluable, 201-011: SD week 8. • Preliminary PK parameters and data are listed in Table 6. • Parameters listed as Mean (% CV) • Tmax reported as median (min, max) • Accumulation ratio Racc based on AUC8h • Patient 101-007 was excluded from C2D1 of cohort 2 (10 mg) due to dose reduction. • Patient 101-011 was excluded from summary statistics of CID1 of cohort 6 (60 mg) due to […] samples. • Patient 201-011 C2D1 parameters excluded from summary statistics of C2D1 of cohort 6 due to extended dose interruption.
# [1] = 40 mg, 40 mg QD, C2D1, patient 202-012
structure (smiles),measurement,setting,value
"O=C1CCc2c(Oc3ccc4c(c3)[C@H]3[C@H](NC(=O)Nc5cc(F)c(F)cc5F)[C@H]3O4)ccnc2N1 [Compound A, 1-((1S,1aS,6bS)-5-((7-oxo-5,6,7,8-tetrahydro-1,8-naphthyridin-4-yl)oxy)-1a,6b-dihydro-1H-cyclopropa[b]benzofuran-1-yl)-3-(2,4,5-trifluorophenyl)urea]",Racc,"5 mg QD, Mean (%CV)",17 (117%)
same,Racc,"10 mg QD, Mean (%CV)",6 (49%)
same,Racc,"15 mg QD, Mean (%CV)",7 (60%)
same,Racc,"25 mg QD, Mean (%CV)",4 (23%)
same,Racc,"40 mg QD, Mean (%CV)",4 (23.5%)
same,Racc,"40 mg QD, patient 101-010",4.05
same,Racc,"40 mg QD, patient 102-012",4.06
same,Racc,"40 mg QD, patient 201-010",5.43
same,Racc,"40 mg QD, patient 202-012",3.06
same,Racc,"60 mg QD, patient 101-011",6.7
same,Racc,"60 mg QD, patient 201-011",5.7
same,Dose proportionality of exposure,"5-60 mg QD, preliminary PK",generally increased dose-proportionally; also recorded: generally dose-proportional
same,Exposure across cohorts versus dose,cohorts up to 40 mg QD,generally proportional to the increase in the dose
same,Cmax,"5 mg, 5 mg QD, C2D1, Mean (%CV)",451 ng/mL
same,AUC(0-t),"5 mg, 5 mg QD, C2D1, Mean (%CV), read-out: AUC8 h",2660 ng·h/mL
same,Cmax,"5 mg, C1D1, Mean (%CV)",105 ng/mL
same,AUC(0-t),"5 mg, C1D1, Mean (%CV), read-out: AUC8 h",414 ng·h/mL
same,AUC(0-t),"5 mg, C1D1, Mean (%CV), read-out: AUC24 h",1380 ng·h/mL
same,Cmax,"10 mg, 10 mg QD, C2D1, Mean (%CV), patient 101-007 excluded",973 ng/mL
same,AUC(0-t),"10 mg, 10 mg QD, C2D1, Mean (%CV), patient 101-007 excluded, read-out: AUC8 h",5720 ng·h/mL
same,Cmax,"10 mg, C1D1, Mean (%CV)",197 ng/mL
same,AUC(0-t),"10 mg, C1D1, Mean (%CV), read-out: AUC8 h",1060 ng·h/mL
same,AUC(0-t),"10 mg, C1D1, Mean (%CV), read-out: AUC24 h",3140 ng·h/mL
same,Cmax,"15 mg, 15 mg QD, C2D1, Mean (%CV)",1660 ng/mL
same,AUC(0-t),"15 mg, 15 mg QD, C2D1, Mean (%CV), read-out: AUC8 h",9930 ng·h/mL
same,Cmax,"15 mg, C1D1, Mean (%CV)",274 ng/mL
same,AUC(0-t),"15 mg, C1D1, Mean (%CV), read-out: AUC8 h",1530 ng·h/mL
same,AUC(0-t),"15 mg, C1D1, Mean (%CV), read-out: AUC24 h",4780 ng·h/mL
same,Cmax,"25 mg, 25 mg QD, C2D1, Mean (%CV)",2110 ng/mL
same,AUC(0-t),"25 mg, 25 mg QD, C2D1, Mean (%CV), read-out: AUC8 h",12300 ng·h/mL
same,Cmax,"25 mg, C1D1, Mean (%CV)",593 ng/mL
same,AUC(0-t),"25 mg, C1D1, Mean (%CV), read-out: AUC8 h",3090 ng·h/mL
same,AUC(0-t),"25 mg, C1D1, Mean (%CV), read-out: AUC24 h",9170 ng·h/mL
same,Cmax,"40 mg, 40 mg QD, C2D1, Mean (%CV)",2970 ng/mL
same,AUC(0-t),"40 mg, 40 mg QD, C2D1, Mean (%CV), read-out: AUC8 h",15700 ng·h/mL
same,Cmax,"40 mg, 40 mg QD, C2D1, patient 101-010",3600 ng/mL
same,AUC(0-t),"40 mg, 40 mg QD, C2D1, patient 101-010, read-out: AUC8 h",15600 ng·h/mL
same,Cmax,"40 mg, 40 mg QD, C2D1, patient 102-012",3550 ng/mL
same,AUC(0-t),"40 mg, 40 mg QD, C2D1, patient 102-012, read-out: AUC8 h",18300 ng·h/mL
same,Cmax,"40 mg, 40 mg QD, C2D1, patient 201-010",2410 ng/mL
same,AUC(0-t),"40 mg, 40 mg QD, C2D1, patient 201-010, read-out: AUC8 h",13400 ng·h/mL
same,Cmax,[1],2300 ng/mL
same,Tmax,[1],3 h
same,AUC(0-t),"40 mg, 40 mg QD, C2D1, patient 202-012, read-out: AUC8 h",15400 ng·h/mL
same,Cmax,"40 mg, C1D1, Mean (%CV)",698 ng/mL
same,AUC(0-t),"40 mg, C1D1, Mean (%CV), read-out: AUC8 h",3960 ng·h/mL
same,AUC(0-t),"40 mg, C1D1, Mean (%CV), read-out: AUC24 h",12100 ng·h/mL
same,Cmax,"40 mg, C1D1, patient 101-010",692 ng/mL
same,AUC(0-t),"40 mg, C1D1, patient 101-010, read-out: AUC8 h",3850 ng·h/mL
same,AUC(0-t),"40 mg, C1D1, patient 101-010, read-out: AUC24 h",12000 ng·h/mL
same,Cmax,"40 mg, C1D1, patient 102-012",789 ng/mL
same,AUC(0-t),"40 mg, C1D1, patient 102-012, read-out: AUC8 h",4510 ng·h/mL
same,AUC(0-t),"40 mg, C1D1, patient 102-012, read-out: AUC24 h",12300 ng·h/mL
same,Cmax,"40 mg, C1D1, patient 201-010",415 ng/mL
same,AUC(0-t),"40 mg, C1D1, patient 201-010, read-out: AUC8 h",2470 ng·h/mL
same,AUC(0-t),"40 mg, C1D1, patient 201-010, read-out: AUC24 h",8460 ng·h/mL
same,Cmax,"40 mg, C1D1, patient 202-012",896 ng/mL
same,AUC(0-t),"40 mg, C1D1, patient 202-012, read-out: AUC8 h",5040 ng·h/mL
same,Cmax,"60 mg, 60 mg QD, C2D1, Mean row, patient 201-011 excluded",5330 ng/mL
same,AUC(0-t),"60 mg, 60 mg QD, C2D1, Mean row, patient 201-011 excluded, read-out: AUC8 h",37500 ng·h/mL
same,Cmax,"60 mg, 60 mg QD, C2D1, patient 201-011 (excluded from C2D1 summary, extended dose interruption)",5230 ng/mL
same,AUC(0-t),"60 mg, 60 mg QD, C2D1, patient 201-011 (excluded from C2D1 summary, extended dose interruption), read-out: AUC8 h",31300 ng·h/mL
same,Cmax,"60 mg, C1D1, Mean (%CV), patient 101-011 excluded",881 ng/mL
same,AUC(0-t),"60 mg, C1D1, Mean (%CV), patient 101-011 excluded, read-out: AUC8 h",4930 ng·h/mL
same,AUC(0-t),"60 mg, C1D1, Mean (%CV), patient 101-011 excluded, read-out: AUC24 h",15400 ng·h/mL
same,Cmax,"60 mg, C1D1, patient 101-011 (excluded from C1D1 summary statistics, AQL samples)",878 ng/mL
same,AUC(0-t),"60 mg, C1D1, patient 101-011 (excluded from C1D1 summary statistics, AQL samples), read-out: AUC8 h",5630 ng·h/mL
same,AUC(0-t),"60 mg, C1D1, patient 101-011 (excluded from C1D1 summary statistics, AQL samples), read-out: AUC24 h",18900 ng·h/mL
same,Cmax,"60 mg, C1D1, patient 201-011",957 ng/mL
same,AUC(0-t),"60 mg, C1D1, patient 201-011, read-out: AUC8 h",5510 ng·h/mL
same,AUC(0-t),"60 mg, C1D1, patient 201-011, read-out: AUC24 h",17600 ng·h/mL
same,Cmax,"60 mg, C1D1, patient 202-014",804 ng/mL
same,AUC(0-t),"60 mg, C1D1, patient 202-014, read-out: AUC8 h",4340 ng·h/mL
same,AUC(0-t),"60 mg, C1D1, patient 202-014, read-out: AUC24 h",13100 ng·h/mL
same,Tmax,"5 mg QD, C2D1, median (min, max)",1 h
same,Tmax,"40 mg QD, C2D1, median (min, max)",1.5 h
same,Tmax,"60 mg QD, C2D1, patient 201-011 (excluded from C2D1 summary, extended dose interruption)",2 h
same,Tmax,"5-60 mg QD, preliminary PK, overall",~2 h
same,average accumulation in exposure at steady-state,preliminary PK,7.4 fold
same,terminal half-life,preliminary PK,long
